The target in one test is PTH1-receptor (Homo sapiens, UniProt Q03431). Description: competitive binding study at PTH1-receptor. The following applies: radio ligand concentration of 1 nM; FIG. 15.
For the next test, the target named is T1, Y-receptor Y2 (Homo sapiens, UniProt P49146).
T1 sequence (P49146 1-381): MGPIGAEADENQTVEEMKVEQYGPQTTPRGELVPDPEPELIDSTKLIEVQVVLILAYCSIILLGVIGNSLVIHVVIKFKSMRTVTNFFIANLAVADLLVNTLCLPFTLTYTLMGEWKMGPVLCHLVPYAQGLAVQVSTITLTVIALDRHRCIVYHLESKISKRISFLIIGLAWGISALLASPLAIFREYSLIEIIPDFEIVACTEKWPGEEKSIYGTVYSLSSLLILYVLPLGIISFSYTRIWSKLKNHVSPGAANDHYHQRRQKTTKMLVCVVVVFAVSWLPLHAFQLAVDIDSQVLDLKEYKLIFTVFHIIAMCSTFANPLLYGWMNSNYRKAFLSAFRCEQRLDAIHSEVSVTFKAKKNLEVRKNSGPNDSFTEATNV
Description: competitive binding studies at the Y2 receptor. Particulars: FIG. 9. How it is done: (§1) The performance of the binding assays was performed as previously described.^(5)

The target of the next test is T2, Y-receptor Y5 (Homo sapiens, UniProt Q15761).
T2 sequence (Q15761 1-445): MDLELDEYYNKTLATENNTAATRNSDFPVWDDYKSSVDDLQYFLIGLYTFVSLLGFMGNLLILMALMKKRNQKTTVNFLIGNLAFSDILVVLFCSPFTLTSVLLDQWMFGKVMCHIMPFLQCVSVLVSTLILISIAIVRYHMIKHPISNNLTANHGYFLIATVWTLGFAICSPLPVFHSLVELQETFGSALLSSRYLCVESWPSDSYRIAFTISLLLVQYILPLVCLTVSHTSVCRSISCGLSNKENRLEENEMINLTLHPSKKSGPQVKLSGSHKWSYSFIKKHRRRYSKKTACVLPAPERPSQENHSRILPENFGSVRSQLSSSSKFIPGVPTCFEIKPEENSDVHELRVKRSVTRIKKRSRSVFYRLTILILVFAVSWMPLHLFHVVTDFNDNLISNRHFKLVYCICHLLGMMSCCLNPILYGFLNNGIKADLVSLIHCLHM
Description: competitive binding studies at the Y5 receptor. Particulars: FIG. 9. How it is done:
as §1

A further test addresses T3, Y-receptor Y1 (Homo sapiens, UniProt P25929).
T3 sequence (P25929 1-384): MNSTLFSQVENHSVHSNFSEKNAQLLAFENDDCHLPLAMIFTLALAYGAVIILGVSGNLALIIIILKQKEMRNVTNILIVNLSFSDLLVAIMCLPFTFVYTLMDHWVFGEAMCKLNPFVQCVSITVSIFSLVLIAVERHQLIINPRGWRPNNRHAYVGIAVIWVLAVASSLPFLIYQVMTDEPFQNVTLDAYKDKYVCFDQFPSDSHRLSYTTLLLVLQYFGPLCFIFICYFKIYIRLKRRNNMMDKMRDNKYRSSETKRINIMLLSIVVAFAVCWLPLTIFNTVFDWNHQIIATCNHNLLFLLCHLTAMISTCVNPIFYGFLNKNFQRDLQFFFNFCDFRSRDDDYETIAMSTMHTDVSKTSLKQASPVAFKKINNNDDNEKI
Description: competitive binding studies at the Y1 receptor. The following applies: FIG. 9. How it is done: as §1

Sequence of PTH1-receptor (Q03431 27-593): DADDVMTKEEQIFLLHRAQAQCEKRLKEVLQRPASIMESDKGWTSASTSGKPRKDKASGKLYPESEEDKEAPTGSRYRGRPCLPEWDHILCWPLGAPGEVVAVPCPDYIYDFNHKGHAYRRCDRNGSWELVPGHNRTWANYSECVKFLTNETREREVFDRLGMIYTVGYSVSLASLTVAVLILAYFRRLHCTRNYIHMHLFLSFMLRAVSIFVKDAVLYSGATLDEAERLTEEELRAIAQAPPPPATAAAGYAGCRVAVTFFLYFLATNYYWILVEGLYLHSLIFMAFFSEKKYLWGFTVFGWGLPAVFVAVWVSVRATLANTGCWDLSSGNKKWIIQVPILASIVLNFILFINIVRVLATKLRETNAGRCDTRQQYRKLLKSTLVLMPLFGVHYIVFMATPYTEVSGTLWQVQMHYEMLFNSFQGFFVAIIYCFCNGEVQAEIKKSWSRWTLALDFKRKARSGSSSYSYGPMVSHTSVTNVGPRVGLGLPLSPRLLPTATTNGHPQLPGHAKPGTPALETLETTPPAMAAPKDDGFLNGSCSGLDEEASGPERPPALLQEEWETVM

For the compound `[3H]CC([3H])C(=O)NCCCC[C@H](NC(=O)CNC(=O)[C@H](CC(C)C)NC(=O)[C@H](CC(N)=O)NC(=O)[C@H](Cc1c[nH]cn1)NC(=O)[C@H](CCSC)NC(=O)[C@H](CC(C)C)NC(=O)[C@H](CCC(N)=O)NC(=O)[C@@H](NC(=O)[C@H](CCC(=O)O)NC(=O)[C@H](CO)NC(=O)[C@@H](NC(=O)[C@@H](N)CO)C(C)C)[C@@H](C)CC)C(=O)N[C@@H](Cc1c[nH]cn1)C(=O)N[C@@H](CC(C)C)C(=O)N[C@@H](CC(N)=O)C(=O)N[C@@H](CO)C(=O)N[C@@H](CCSC)C(=O)N[C@@H](CCC(=O)O)C(=O)N[C@@H](CCCNC(=N)N)C(=O)N[C@H](C(=O)N[C@@H](CCC(=O)O)C(=O)N[C@@H](Cc1c[nH]c2ccccc12)C(=O)N[C@@H](CC(C)C)C(=O)N[C@@H](CCCNC(=N)N)C(=O)N[C@@H](CCCCN)C(=O)N[C@@H](CCCCN)C(=O)N[C@@H](CC(C)C)C(=O)N[C@@H](CCC(N)=O)C(=O)N[C@@H](CC(=O)O)C(=O)N[C@H](C(=O)N[C@@H](Cc1c[nH]cn1)C(=O)N[C@@H](CC(N)=O)C(=O)N[C@@H](Cc1ccccc1)C(N)=O)C(C)C)C(C)C` (stereo partly shown) [PTH (1-34)-amide marked at position 13, ^3H-proprionyl-Lys^13-PTH(1-34)-amide], at PTH1-receptor, the “behavior in competitive binding relative to non-marked PTH (1-34)-amide” value is recorded as “nearly identical behavior”.

For ^3H-proprionyl-Lys^4-NPY [^3H-NPY], the “behavior in competitive binding in comparison to commercially available ^3H-NPY” value on Y-receptor Y2, on Y-receptor Y5 and on Y-receptor Y1 was “identical behavior” throughout.

For the origin of these results see patent US20040197824A1, “Method for selective radioactive marking of peptides” (priority 2002, published 2004).
